6 molecules from patent publication US8722890B2 (AbbVie Inc., priority 2008, dated 2014) can be followed below.

Where two headings read alike, the source gives them in different places.

One data set has as its target Aurora C (Homo sapiens (Human), UniProt Q9UQB9). Nature of the data set: Aurora C activity assay (time-resolved fluorescence). It counts as biochemical. The note with it: Table 5; read-out: Aurora C HTRF IC50. As for the experimental part:
To determine Aurora A and C activity of representative compounds of the invention, Active Aurora A or C enzyme was incubated in wells of a 384 well plate with biotinylated STK substrate-2 (Upstate), 1 mM ATP, and various concentrations of inhibitors in a Hepes buffer, pH 7.4 containing MgCl2, sodium othrovanadate, and Triton X-100. After 1 hour, the reaction was stopped with EDTA and anti-phospho-STK antibody Europium Cryptate (Upstate) and SA-XL665 (Upstate) were added to detect the phosphopeptide. The amount of phosphorylation was determined by the time-resolved fluorescence ratio of signals at 665 nm and 615 nm. The IC50s were calculated by an exponential fit of the inhibition values with the inhibitor concentrations using Assay Explorer software.
On the technique in general: TR-FRET usually uses a lanthanide donor and a delayed reading to cut background.

For another data set, the target named is cKIT (Homo sapiens (Human), UniProt P10721). As to the kind of experiment: HTRF in vitro kinase assay, cKIT. It counts as biochemical. As to conditions: PDGFR family; 1 mM ATP. As for the experimental part:
(§1) To determine the activity of the various kinases, a homogenous time-resolved fluorescence (HTRF) in vitro kinase assay was used.
(§2) For example for KDR, cKIT, FLT1, CSF1R and FTL3, purified enzyme was mixed with 0.5 μM N-biotinylated substrate (Biotin-Ahx-[…]-amide (SEQ. ID. 1)), various concentrations of inhibitor in reaction buffer (50 mM HEPES, pH 7.1, 10 mM MgCl2, 2 mM MnCl2, 0.1% BSA and 1 mM DTT, 40 μL final volume), ATP (1 mM final conc.) in a black 384-well plate. […] The quenched reaction was allowed to stand at room temperature for 3 hours and was then read in a time-resolved fluorescence detector (InVision, Perkin-Elmer) at 620 nm and 665 nm sequentially with excitation.

Another data set addresses Aurora B (Homo sapiens (Human), UniProt Q96GD4). As to the kind of experiment: Aurora B activity assay (time-resolved fluorescence). The format is biochemical. The note with it: Table 3; 1 mM ATP. The procedure: After 1 hour, the reaction was stopped with EDTA and anti-phospho-histone H3 Europium Cryptate (Cis-Bio) and SA-APC (Phycolink, Prozyme) were added to detect the phosphopeptide. The amount of phosphorylation was determined by the time-resolved fluorescence ratio of signals at 665 nm and 615 nm. The IC50's were calculated by an exponential fit of the inhibition values with the inhibitor concentrations using Assay Explorer software.

Another data set deals with CYP 3A4 (Homo sapiens (Human), UniProt P08684). As to the kind of experiment: CYP 3A4 Assay (pooled human liver microsomes, midazolam). As for the experimental part:
Assays (200 μL final volume) were carried out in NUNC polypropylene deep well plates in 50 mM potassium phosphate buffer, pH 7.4, using a microtiter plate shaker in a 37° C. incubator. […] A constant amount of dimethylsulfoxide (1%) was added to the incubations with the test compounds, and each analysis was performed in duplicate. For preincubation experiments (Pre), the microsomes, test compounds, and NADPH were mixed and incubated 30 minutes before addition of midazolam. For coincubation experiments (Co), the compounds, microsomes, and midazolam were mixed and the reaction initiated by addition of NADPH to the wells. In both protocols, the complete reaction was terminated after 10 minutes of shaking by addition of 100 μL of a 1/1 mixture of acetonitrile and methanol containing 0.33 μM 1-hydroxytriazolam.
For analysis, an aliquot of each well were transferred to an autosampler vial and 10 μL injected onto a Shimadzu LC-10A HPLC system equipped with a YMC-AQ (2.0×50 mm) column. The components were separated using a gradient of 10% acetonitrile −0.1% acetic acid to 70% acetonitrile −0.1% acetic acid at a flow rate of at 0.4 mL/minute over 5 minutes.

The target in a further data set is KDR (Homo sapiens (Human), UniProt P35968). As to the kind of experiment: HTRF in vitro kinase assay, KDR. The format is biochemical. As to conditions: VEGFR family; 1 mM ATP. As for the experimental part:
as §1, §2

Aurora B, sequence (Q96GD4 whole entry): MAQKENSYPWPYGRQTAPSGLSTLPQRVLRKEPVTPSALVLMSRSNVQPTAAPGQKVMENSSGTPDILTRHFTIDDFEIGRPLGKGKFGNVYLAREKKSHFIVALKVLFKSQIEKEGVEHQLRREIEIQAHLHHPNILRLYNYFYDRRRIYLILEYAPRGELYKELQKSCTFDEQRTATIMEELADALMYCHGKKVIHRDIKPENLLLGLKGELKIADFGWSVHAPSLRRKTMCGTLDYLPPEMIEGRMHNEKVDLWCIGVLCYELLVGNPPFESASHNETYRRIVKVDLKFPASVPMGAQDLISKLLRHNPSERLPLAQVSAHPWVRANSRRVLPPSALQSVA
Aurora B, sequence (Q9NQS7 826-918 partner): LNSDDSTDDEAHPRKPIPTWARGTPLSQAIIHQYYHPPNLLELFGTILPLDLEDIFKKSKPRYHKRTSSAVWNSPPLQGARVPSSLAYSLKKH
cKIT, sequence (P10721 544-976): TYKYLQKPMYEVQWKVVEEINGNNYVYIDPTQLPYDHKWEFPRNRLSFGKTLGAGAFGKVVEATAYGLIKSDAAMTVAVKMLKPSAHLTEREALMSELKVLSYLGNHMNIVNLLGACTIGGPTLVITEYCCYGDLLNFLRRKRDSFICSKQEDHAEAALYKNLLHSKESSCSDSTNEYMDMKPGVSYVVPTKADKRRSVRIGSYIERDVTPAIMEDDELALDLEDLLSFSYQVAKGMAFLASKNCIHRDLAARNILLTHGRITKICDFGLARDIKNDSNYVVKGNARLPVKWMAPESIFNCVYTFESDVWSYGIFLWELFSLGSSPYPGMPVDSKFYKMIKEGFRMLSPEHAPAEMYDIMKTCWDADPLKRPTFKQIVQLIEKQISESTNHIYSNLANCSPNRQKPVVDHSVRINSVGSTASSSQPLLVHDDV
CYP 3A4, sequence (P08684 whole entry): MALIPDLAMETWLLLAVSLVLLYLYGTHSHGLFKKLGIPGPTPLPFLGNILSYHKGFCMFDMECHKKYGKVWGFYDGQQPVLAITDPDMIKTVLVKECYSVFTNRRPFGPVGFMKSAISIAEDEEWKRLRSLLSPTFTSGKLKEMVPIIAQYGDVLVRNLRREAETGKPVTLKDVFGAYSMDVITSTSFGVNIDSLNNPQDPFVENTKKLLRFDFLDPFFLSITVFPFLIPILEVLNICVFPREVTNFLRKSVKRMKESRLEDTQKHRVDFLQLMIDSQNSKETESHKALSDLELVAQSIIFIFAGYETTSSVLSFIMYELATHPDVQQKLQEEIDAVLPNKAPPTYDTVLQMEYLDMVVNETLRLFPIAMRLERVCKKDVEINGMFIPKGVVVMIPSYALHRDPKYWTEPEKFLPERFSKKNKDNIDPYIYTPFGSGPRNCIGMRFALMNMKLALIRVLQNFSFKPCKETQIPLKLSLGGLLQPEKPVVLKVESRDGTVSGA
KDR, sequence (P35968 789-1354): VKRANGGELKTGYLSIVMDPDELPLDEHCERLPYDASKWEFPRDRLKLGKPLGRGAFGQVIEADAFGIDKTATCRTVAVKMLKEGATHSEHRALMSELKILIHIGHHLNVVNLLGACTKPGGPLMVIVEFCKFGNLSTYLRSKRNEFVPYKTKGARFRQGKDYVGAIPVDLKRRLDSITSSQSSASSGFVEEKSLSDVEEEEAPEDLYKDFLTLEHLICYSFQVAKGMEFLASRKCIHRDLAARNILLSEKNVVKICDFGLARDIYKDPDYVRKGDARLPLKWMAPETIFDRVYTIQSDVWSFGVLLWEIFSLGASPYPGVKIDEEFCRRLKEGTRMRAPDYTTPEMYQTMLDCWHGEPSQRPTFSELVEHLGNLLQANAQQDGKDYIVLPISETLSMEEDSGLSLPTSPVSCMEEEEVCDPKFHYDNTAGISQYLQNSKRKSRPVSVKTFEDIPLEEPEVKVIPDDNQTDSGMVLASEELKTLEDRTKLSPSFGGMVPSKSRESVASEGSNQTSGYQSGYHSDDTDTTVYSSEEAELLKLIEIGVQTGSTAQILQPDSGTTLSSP
Aurora C, sequence (Q9UQB9 whole entry): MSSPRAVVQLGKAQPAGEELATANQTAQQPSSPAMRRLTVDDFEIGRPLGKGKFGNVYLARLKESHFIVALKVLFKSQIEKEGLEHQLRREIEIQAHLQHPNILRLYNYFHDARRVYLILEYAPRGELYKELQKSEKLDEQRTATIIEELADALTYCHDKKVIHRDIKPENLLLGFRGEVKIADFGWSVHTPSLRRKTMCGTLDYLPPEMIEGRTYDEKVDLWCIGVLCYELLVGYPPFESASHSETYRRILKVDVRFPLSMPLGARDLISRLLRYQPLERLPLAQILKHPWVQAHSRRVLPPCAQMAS

What is called IC50 is the concentration at which inhibition is half-maximal. In the case of `Nc1ncc(-c2cnn(CCO)c2)c2scc(-c3ccc(NC(=O)Nc4cccc(F)c4)cc3)c12` [Example 1, N-(4-{4-amino-7-[1-(2-hydroxyethyl)-1H-pyrazol-4-yl]thieno[3,2-c]pyridin-3-yl}phenyl)-N′-(3-fluorophenyl)urea], at Aurora C, the IC50 amounted to 1 nM.
As to `Nc1ncc(-c2cnn(CCO)c2)c2scc(-c3ccc(NC(=O)Nc4ccc(OC(F)F)cc4)cc3)c12` [Example 2, N-(4-{4-amino-7-[1-(2-hydroxyethyl)-1H-pyrazol-4-yl]thieno[3,2-c]pyridin-3-yl}phenyl)-N′-[4-(difluoromethoxy)phenyl]urea], the IC50 was determined as 27.3 nM at cKIT and 7.87 nM at Aurora B.
Regarding `Cc1cccc(NC(=O)Nc2ccc(-c3csc4c(-c5cnn(C[C@H](C)O)c5)cnc(N)c34)cc2)c1` [Example 3, N-[4-(4-amino-7-{1-[(2S)-2-hydroxypropyl]-1H-pyrazol-4-yl}thieno[3,2-c]pyridin-3-yl)phenyl]-N′-(3-methylphenyl)urea], half-maximal inhibition at Aurora B (IC50) was put at 11.2 nM.
On to `COc1ccc(NC(=O)Nc2ccc(-c3csc4c(-c5cnn(CC(C)(C)O)c5)cnc(N)c34)cc2)cc1` [Example 4, N-(4-{4-amino-7-[1-(2-hydroxy-2-methylpropyl)-1H-pyrazol-4-yl]thieno[3,2-c]pyridin-3-yl}phenyl)-N′-(4-methoxyphenyl)urea], for which the IC50 at CYP 3A4 (read-out: CYP 3A4 IC50, coincubation (Co), Co: reaction initiated by addition of NADPH, 2 μM midazolam) was over 10000 nM; on CYP 3A4 (read-out: CYP 3A4 IC50, preincubation (Pre), Pre: microsomes, compound, NADPH incubated 30 minutes before midazolam), over 10000 nM; on KDR, 5.01 nM; against Aurora B it was 14.8 nM.
As to `COc1ccc(NC(=O)Nc2ccc(-c3csc4c(-c5cnn(C[C@H](O)CO)c5)cnc(N)c34)cc2)cc1` [Example 5, N-[4-(4-amino-7-{1-[(2S)-2,3-dihydroxypropyl]-1H-pyrazol-4-yl}thieno[3,2-c]pyridin-3-yl)phenyl]-N′-(4-methoxyphenyl)urea], half-maximal inhibition on cKIT (IC50) was put at 12.6 nM.
As to `Cc1cccc(NC(=O)Nc2ccc(-c3csc4c(-c5cn[nH]c5)cnc(N)c34)cc2)c1` [Example 6, N-{4-[4-amino-7-(1H-pyrazol-4-yl)thieno[3,2-c]pyridin-3-yl]phenyl}-N′-(3-methylphenyl)urea, reference compound], the IC50 on Aurora B was 8.44 nM.
